Here are results for six compounds from patent US20200247808A1, “Heterocyclic Tec-Family Kinase Inhibitors” (GB005, Inc., priority 2015, published 2020).

One series deals with T1, human BTK (Homo sapiens, UniProt Q06187).
T1 construct: purchased Eurofins Pharma Discovery Services UK Limited (contract assay, KinaseProfiler)
Put plainly: BTK kinase inhibition, KinaseProfiler radiometric protein kinase assay (Eurofins). Format: biochemical. Here is the method: In vitro potency of selected compound was defined against human BTK, EGFR, and ErbB2 kinases using Kinase Profiler radiometric protein kinase assays performed at Eurofins Pharma Discovery Services UK Limited.
Each kinase is diluted in buffer and all compounds were prepared to 50x final assay concentration in 100% DMSO. This working stock of the compound was added to the assay well as the first component in the reaction, followed by the remaining components as detailed in the assay protocol listed above. The reaction was initiated by the addition of the MgATP mix. […] (specific activity approx. 500 cpm/pmol, concentration as required) and variable test article concentrations. […] The reaction was stopped by the addition of 3% phosphoric acid solution. 10 μL of the reaction is then spotted onto a P30 filtermat and washed three times for 5 minutes in 75 mM phosphoric acid and once in methanol prior to drying and scintillation counting. In addition positive control wells contain all components of the reaction, except the compound of interest; however, DMSO (at a final concentration of 2%) were included in these wells to control for solvent effects as well as blank wells contain all components of the reaction, with a reference inhibitor replacing the compound of interest. This abolishes kinase activity and establishes the base-line (0% kinase activity remaining). The potency of each compound was reported by estimating the EC50.

Series [1] deals with TMD-8 human activated B cell diffuse large B cell lymphoma cells. Put plainly: TMD-8 survival assay (Cell Titer-Glo). Format: cell-based. To be noted: TMD8, TMD-8 cells, 72 h. Here is the method:
TMD-8 human activated B cell diffuse large B cell lymphoma cells were seeded in 96-well plates at a density of 20,000 cells/well in HyClone RPMI supplemented with 10% FBS (Fisher)/1% Penicillin/Streptomycin (HyClone) and incubated at 37° C., 5% CO2. Cells were treated in triplicate with 1,000 nM or 100 nM curves of compounds for 72h. Cell survival was measured by Cell Titer-Glo Luminescent Assay (Promega). EC50 values (50% proliferation in the presence of compound as compared to vehicle treated controls) were calculated from dose response compound curves using GraphPad Prism Software.

The subject of the next series is splenocytes. Kind of series: Splenic cell proliferation assay (anti-IgM stimulated, Cell Titer-Glo). It counts as cell-based, mouse (CD1). To be noted: Splenocyte; mouse splenocytes, 2.5 μg/ml anti-IgM F(ab')2, 72 h; read-out: Spleen cell EC50. Here is the method: Proliferation of splenocytes in response to anti-IgM can be blocked by inhibition of BTK. Splenocytes were obtained from 6 week old male CD1 mice (Charles River Laboratories Inc.). Mouse spleens were manually disrupted in PBS and filtered using a 70um cell strainer followed by ammonium chloride red blood cell lysis. Cells were washed, resuspended in Splenocyte Medium (HyClone RPMI supplemented with 10% heat-inactivated FBS, 0.5X non-essential amino acids, 10 mM HEPES, 50 μM beta mercaptoethanol) and incubated at 37° C., 5% CO2 for 2h to remove adherent cells. Suspension cells were seeded in 96 well plates at 50,000 cells per well and incubated at 37° C., 5% CO2 for 1h. Splenocytes were pre-treated in triplicate with 10,000 nM curves of Formula 1 compounds for 1h, followed by stimulation of cell proliferation with 2.5 μg/ml anti-IgM
F(ab′)2 (Jackson ImmunoResearch) for 72 h. Cell proliferation was measured by Cell Titer-Glo Luminescent Assay (Promega). EC50 values (50% proliferation in the presence of compound as compared to vehicle treated controls) were calculated from dose response compound curves using GraphPad Prism Software.
(In ATP-based viability assays light output follows the ATP content of the culture.)

Series [2] can be described thus: Formation of glutathione adducts (GSH reactivity, HPLC-UV). It counts as in vitro ADME. To be noted: 10 mM GSH, 20 micromolar test article, pH 7.4, 37° C. Here is the method:
Generation of non-specific thiol adducts can be measured by assaying reactivity of compounds with GSH. Formation of GSH adducts was measured by incubating GSH (10 mM) in 100 mM Phosphate Buffer pH 7.4 with test article at 20 micromolar final concentration. Briefly, 600 microliters of phosphate buffer pH 7.4 was added in a glass vial with 200 microliters of 100 micromolar test article in DMSO. Samples were warmed at 37° C. for 10 minutes and the reaction was initiated by the addition of 200 microliters of 50 mM reduced GSH in phosphate buffer pH 7.4 and incubated at 37° C. At various time points (0.5 min, 5 min, 15 min, 30 min, 60 min, 120 min and 180 min) 50 microliter aliquots were placed into an injection vial equipped with an insert and mixed with 50 microliters of 1% formic acid in 99% Methanol. Vials were loaded onto the HPLC injection tray and each sample was injected onto a C18 column (ACE 3 C18, 4.6×50 mm column) and both the parent and product were monitored by UV absorbance at 254 nm on an Agilent Technologies 1100 series HPLC. Peaks were integrated and the percentage of product present calculated as the percent of the total peak area on the parent and product at 60 minutes.

Series [3] is described as follows: Mouse plasma pharmacokinetics. It counts as in vivo, mouse (CD-1). Particulars: male, CD-1, mouse, mice. Here is the method: Plasma pharmacokinetic studies were conducted in CD1 mice to compare the plasma exposure following oral and intravenous administration of the free-base form of each compound to mice and to calculate bioavailability. Male CD-1 mice (25-30 g on delivery; Charles River) were used for mouse PK studies. The mice were housed 3 per cage in a room under controlled conditions of temperature ([…]) and humidity (40-70%), with a 12 h dark/light cycle. The animals were acclimated for a minimum of 3 days prior to use and received standard rodent chow (Charles River) and municipal tap water ad libitum. Nine animals were used per study, they were dosed PO or IV and bled from the mandibular vein, 2 to 3 times per animal at the following time points; pre dose, 15 and 30 min, 1, 2, 3, 5, 7 and 24 h (0.1 mL whole blood /time point; composite PK). Blood was collected into microvette K3E tubes ([…]) at RT and then centrifuged at 5,000 RPM for 2 min at 4° C. in order to separate plasma. Isolated plasma (0.015 mL/time point) was pipetted into 96 well plates (Canadian Life Science) which were stored at minus 20° C. until analysis (2 duplicate plates per study).
Concentrations of compound in rodent plasma samples were determined by LC-MS-MS. Two standard curves containing 8 points each were prepared by spiking in methanol or plasma with a solution containing the test article at a defined concentration. The range of final compound concentration in the standard curve was 0 to 1 μg/mL. Three sets of quality control (QC) samples in plasma at low, medium and high concentration within the standard curve range were also prepared. For analysis, the compound was extracted using protein precipitation extraction procedure. Briefly, a three-fold volume of methanol containing an internal standard was added to the plasma and standard curve solution samples and then incubated at 4° C. for 5 minutes. The plates were centrifuged for 30 minutes at 4° C. at 4000 rpm and the resulting supernatant was transferred to a 96-well propylene plates and sealed with cover to avoid sample evaporation. Ten μL aliquots of extracted samples were injected using a 96-well plate autosampler held at 4° C. onto a ACE C18 50×4.6 mm, 3 um HPLC column held at 30° C. Plasma derived parent compound was eluted using the following conditions: pump flow rate was set at 1 mL/min for a five minutes chromatographic method using a 3 min gradient elution from 20% solvent A (0.1% formic acid in water) and 80% solvent B (0.1% Formic Acid in Methanol) to 10% solvent A and 90% solvent B. The method was followed by 1 min column wash at 95% solvent B and 1 min column re-equilibration back to 80% solvent B. Under these conditions the compound was eluted after 1.8 minutes. For LC-MS-MS compound detection, the curtain gas was set at 10, collision gas was set at 8, ion spray voltage was set at 4500, temperature was set at 500, ion source gas 1 was set at 40 and ion source gas 2 was set at 60. Using a positive ionization mode, the MRM transition monitored was set at […]. Under these conditions, standard curves were linear up to 2000 ng/mL, the lower limit of quantification was generally at 10 ng/mL.
The area under the curve (AUCtot and AUClast), the maximum plasma concentration (Cmax) and time (Tmax), and terminal half life (T1/2), clearance and volume of distribution were calculated by regression analysis using Kinetica version 5.0 (Thermo Fisher Scientific) using a Non-Compartmental Extravascular/IV Bolus analysis model.

Like-named read-outs stand apart in the source and are kept apart here.

T1 sequence (Q06187 whole entry): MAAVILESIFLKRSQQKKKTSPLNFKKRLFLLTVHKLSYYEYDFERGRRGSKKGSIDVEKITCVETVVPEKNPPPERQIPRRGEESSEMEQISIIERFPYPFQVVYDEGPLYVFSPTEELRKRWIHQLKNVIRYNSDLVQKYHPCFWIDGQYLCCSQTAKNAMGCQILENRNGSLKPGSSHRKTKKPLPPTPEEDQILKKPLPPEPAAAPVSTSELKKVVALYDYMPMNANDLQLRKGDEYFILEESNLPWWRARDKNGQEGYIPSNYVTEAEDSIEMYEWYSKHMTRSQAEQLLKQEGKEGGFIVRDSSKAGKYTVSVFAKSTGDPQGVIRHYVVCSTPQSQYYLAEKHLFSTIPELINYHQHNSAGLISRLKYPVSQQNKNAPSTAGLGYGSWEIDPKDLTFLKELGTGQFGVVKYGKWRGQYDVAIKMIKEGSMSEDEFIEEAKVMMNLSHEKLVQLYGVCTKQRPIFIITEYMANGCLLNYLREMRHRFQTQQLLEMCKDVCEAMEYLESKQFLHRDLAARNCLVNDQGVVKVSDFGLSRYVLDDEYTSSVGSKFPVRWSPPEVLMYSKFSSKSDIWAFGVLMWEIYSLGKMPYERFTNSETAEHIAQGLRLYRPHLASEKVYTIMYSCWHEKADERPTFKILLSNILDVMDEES

The IC50 is the point on the concentration scale where inhibition reaches its midpoint. Low readings indicate higher potency, high ones lower potency. In general, EC50 refers to the concentration that produces a half-maximal response. At human BTK, `C=CC(=O)N[C@H]1C[C@@H](n2nc(-c3ccc(Oc4ccc(F)cc4F)cc3)c3c(N)ncnc32)C1` [Compound 3] had a concentration for half-maximal inhibition (IC50) of 10 nM. The EC50 in series [1] is 6.5 nM; with splenocytes it was 0.9 nM. Also, the “GSH Reactivity GSH Conjugate at 60 minutes” value (shortened to “GSH Reactivity GSH Conjugate”) in series [2] is 12.6 % of total Peaks.
As to `CC#CC(=O)N(C)[C@H]1C[C@@H](n2nc(-c3ccc(Oc4ccccc4)cc3)c3c(N)ncnc32)C1` [Compound 4], inhibition at human BTK was half-maximal at 1 nM (IC50). In addition, the figures for the EC50 (in series [1]; with splenocytes) were 5.4 nM and 0.8 nM, respectively. Besides, in series [2], the “GSH Reactivity GSH Conjugate” value is given as 8.4 % of total Peaks.
The like results for `C=CC(=O)N(C)[C@H]1C[C@@H](n2nc(-c3ccc(Oc4ccccc4)cc3)c3c(N)ncnc32)C1` [Compound 5] were, in that order, 0.7 nM, 1.9 nM, 0.5 nM and 28.9 % of total Peaks.
`C=CC(=O)N[C@H]1C[C@@H](n2nc(-c3ccc(Oc4ccccc4)cc3F)c3c(N)ncnc32)C1` [Compound 6] had a half-maximal inhibitory concentration (IC50) on human BTK of 3 nM. The concentration giving a half-maximal response (EC50) worked out at 3 nM in series [1] and 0.4 nM in the series with splenocytes. The “GSH Reactivity GSH Conjugate” value in series [2] is listed as 12.6 % of total Peaks.
The compound `CC#CC(=O)N[C@H]1C[C@@H](n2nc(-c3ccc(Oc4ccccc4)cc3F)c3c(N)ncnc32)C1` [Compound 7] had a half-inhibitory concentration (IC50) on human BTK of 1 nM. Further, the results for the EC50 (in series [1]; with splenocytes) were 1.5 nM and 0.4 nM, respectively. Further, the “GSH Reactivity GSH Conjugate” value in series [2] is on record as 5.9 % of total Peaks.
The term AUC denotes concentration integrated over time. The term bioavailability denotes dose-corrected exposure relative to a reference, in per cent. The low end stands for little systemic uptake, the high end for much systemic uptake. One may read the Cmax as the highest concentration seen after dosing. As to `C=CC(=O)N1CCC[C@@H](n2nc(-c3ccc(Oc4ccccc4)cc3)c3c(N)ncnc32)C1` [Reference, 1-((R)-3-(4-amino-3-(4-phenoxyphenyl)-1H-pyrazolo[3,4-d]pyrimidin-1-yl)piperidin-1-yl)prop-2-en-1-one, reference compound], the figures for the EC50 (in series [1]; in the series on splenocytes) were 2 nM and 0.4 nM, respectively. Besides, the AUC was 1070 ng·h/mL in series [3] (intravenous 3 mg/kg, free base, read-out: Intravenous AUC) and 349 ng·h/mL in series [3] (oral 10 mg/kg, free base, read-out: Oral AUC). This compound yielded a bioavailability in series [3] (oral 10 mg/kg vs intravenous 3 mg/kg) of 9.8%. This compound also showed a Cmax in series [3] (oral 10 mg/kg, free base) of 219 ng/mL. Besides, the “GSH Reactivity GSH Conjugate” value in series [2] is listed as 31.7 % of total Peaks.
